Literature values as cited in patent publication US20090203786A1, “Methods and Composition for Improving Cognitive Function” (priority 2005, published 2009).

Conditions: Connor W E et al. (1990)

For CC/C=C\C/C=C\C/C=C\C/C=C\C/C=C\C/C=C\CCC(=O)O [DHA, docosahexaenoic acid], the “half-life of DHA in brain” value (Rhesus monkey brain) is given as 21 days and the “Cerebral DHA concentration relative to pre-supplementation value” (Rhesus monkeys, stabilized after 12 weeks of supplementation) is given as 7 times.
